The test system of test [1] is human peripheral blood mononuclear cells (PBMC). Briefly: Peripheral blood mononuclear cell assay (cytokine induction, CBA). Format: cell-based. The note with it: Homo sapiens, PBMC, 24 h, human PBMC, 24 h, Minimal Effective Concentration; read-out: INF-α MEC. As to the method: Peripheral Blood Mononuclear Cell Assay The purpose of this example is to determine the expression level of cytokines 24 h after stimulation to human peripheral blood mononuclear cells (PBMC) with the compounds. The cell supernatant was assayed without dilution and the levels of IFN-α and TNF-α were directly determined. The compound was firstly formulated into 20 mM DMSO stock solution and was gradient diluted with cell medium in 10-fold with the total number of 11 diluting points. The compounds in 9 diluting points (the highest concentration was 200 μmol/L) were added into 96-well plate with 50 μL in each well. Fresh human peripheral blood mononuclear cells were inoculated, with 150 μL in each well containing 450,000 cells. The cell culture plate was incubated in an incubator at 37° C., 5% CO2 for 24 h. After incubation, the culture plate was centrifuged at 1200 rpm for 5 min and the supernatant was collected and stored at −20° C. for determination. The determination of cytokine was performed using Cytometric Bead Array (CBA) of BD-Pharmingen on flow cytometer. Using the above determining method, the lowest drug concentration stimulating cytokine level which is over 3 times greater than the lowest detectable limit was designated as the MEC (Minimal Effective Concentration) value in the cytokine stimulating test.

The target in test [2] is Toll-like receptor 7 (Homo sapiens (Human), UniProt Q9NYK1). Briefly: Toll-like receptor 7 in vitro receptor binding activity screen (HEK-blue hTLR7 cell, alkaline phosphatase/Quanti-Blue readout). The class given is cell-based. The note with it: HEK-blue hTLR7 cell, 24 h; read-out: TLR7 EC50. As to the method: Toll-Like Receptor 7 and Toll-Like Receptor 8 In Vitro Receptor Binding Activity Screen
Sequence of Toll-like receptor 7 (Q9NYK1 27-1049): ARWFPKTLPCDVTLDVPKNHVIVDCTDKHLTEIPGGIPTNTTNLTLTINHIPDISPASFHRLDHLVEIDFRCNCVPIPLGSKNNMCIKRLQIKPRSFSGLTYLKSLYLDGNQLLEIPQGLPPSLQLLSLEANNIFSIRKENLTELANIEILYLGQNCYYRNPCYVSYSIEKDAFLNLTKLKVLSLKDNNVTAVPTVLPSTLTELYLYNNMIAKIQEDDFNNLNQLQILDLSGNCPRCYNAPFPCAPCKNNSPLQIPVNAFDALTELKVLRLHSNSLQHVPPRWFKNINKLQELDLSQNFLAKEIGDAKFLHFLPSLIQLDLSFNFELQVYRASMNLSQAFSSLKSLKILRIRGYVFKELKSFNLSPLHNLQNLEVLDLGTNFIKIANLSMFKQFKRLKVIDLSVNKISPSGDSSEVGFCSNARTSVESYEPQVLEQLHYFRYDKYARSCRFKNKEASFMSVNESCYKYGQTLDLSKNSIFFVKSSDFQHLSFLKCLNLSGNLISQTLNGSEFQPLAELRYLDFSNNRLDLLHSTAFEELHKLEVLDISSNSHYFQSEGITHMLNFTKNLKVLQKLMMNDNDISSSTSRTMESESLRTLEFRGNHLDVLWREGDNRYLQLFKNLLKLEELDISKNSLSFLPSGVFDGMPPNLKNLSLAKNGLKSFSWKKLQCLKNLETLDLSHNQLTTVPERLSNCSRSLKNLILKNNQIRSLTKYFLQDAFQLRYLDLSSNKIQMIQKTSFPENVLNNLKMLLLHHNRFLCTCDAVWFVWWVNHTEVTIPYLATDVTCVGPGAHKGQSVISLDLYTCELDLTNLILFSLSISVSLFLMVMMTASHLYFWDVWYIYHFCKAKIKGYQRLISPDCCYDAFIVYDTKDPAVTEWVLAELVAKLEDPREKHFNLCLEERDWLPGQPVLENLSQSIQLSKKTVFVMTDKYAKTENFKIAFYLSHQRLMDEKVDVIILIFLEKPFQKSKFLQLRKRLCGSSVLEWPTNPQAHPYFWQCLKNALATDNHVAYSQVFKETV
HEK-blue hTLR7 cell and HEK-blue hTLR8 cell (available from InvivoGen)
1. Preparation of 96-well compound plate:
The compounds were gradient diluted with DMSO in 3-fold using liquid work station POD starting at a concentration of 10 mmol/L and 10 points were diluted (2nd column to 11th column, and each point was duplicated). At 12th column, 1 μL of 5 mg/mL positive compound R848 was added as positive control; and at 1st column, 1 μL of DMSO was added as negative control. Each well contained 1 μL of DMSO.
2. The cells in culture flask were collected and the cell density was diluted to 250,000 cells/mL.
3. 200 μL (50,000 cells/well) of cell suspension was added into prepared compound plate and the final concentration of DMSO in each well was 0.5%.
4. The culture plates containing cells and the compounds were incubated in CO2 incubator for 24 h at 37° C., 5% CO2.
5. After 24 h incubation, 20 μL of supernatant was removed from each well to a 96-well transparent assay plate. To each well of the assay plate was added 180 μL of Quanti-Blue reagent and the plate was incubated in an incubator at 37° C., 5% CO2 for 1 h.
6. After 1 h, the content of alkaline phosphatase in 20 μL of supernatant was determined using Microplate Reader OD650.
7. EC50 of each compound was obtained with Prism software.

Here are results for 13 compounds from patent US9962388B2, “Pyrrolopyrimidine compounds used as TLR7 agonist” (priority 2014, dated 2018).

Structures are written as SMILES.

What is called EC50 is the concentration at which the effect is half-maximal. On to `CCCCOc1nc(N)c2[nH]cc(Cc3cccc(CN4CCCC4)c3)c2n1` [Example 4, 2-butoxy-7-(3-(pyrrolidine-1-ylmethyl)benzyl)-5H-pyrrolo[3,2-d]pyrimidine-4-amine], for which, in test [1], the minimal effective concentration fell in the range of 0.01 to 100 µM. Further, the 50% effective concentration (EC50) in test [2] lay in the range of 0.1 to 1 µM.

Take `CCCCOc1nc(N)c2[nH]cc(Cc3ccc(CN4CCCC4)nc3)c2n1` [Example 22, 2-butoxy-7-((6-(pyrrolidine-1-ylmethyl)pyridine-3-yl)methyl)-5H-pyrrolo[3,2-d]pyrimidine-4-amine]: the minimal effective concentration in test [1] fell in the range of 0.001 to 0.01 µM. Besides, the EC50 in test [2] was in the range of 0.1 to 1 µM. The corresponding values for `CCCCOc1nc(N)c2[nH]cc(Cc3ccc4c(c3)CNCC4)c2n1` [Example 28, 2-butoxy-7-((1,2,3,4-tetrahydroisoquinoline-7-yl)methyl)-5H-pyrrolo[3,2-d]pyrimidine-4-amine] are 0.001 to 0.01 µM and 0.1 to 1 µM.

Turning to `CCCCOc1nc(N)c2[nH]cc(Cc3ccc4c(c3)CN(C)CC4)c2n1` [Example 29, 2-butoxy-7-((2-methyl-1,2,3,4-tetrahydroisoquinoline-7-yl)methyl)-5H-pyrrolo[3,2-d]pyrimidine-4-amine], in test [1], the minimal effective concentration lay in the range of 1e-05 to 0.001 µM. Also, the EC50 in test [2] was in the range of 0.1 to 1 µM.

Regarding `CCCCOc1nc(N)c2[nH]cc(Cc3ccc4c(c3)CN(CC)CC4)c2n1` [Example 30, 2-butoxy-7-((2-ethyl-1,2,3,4-tetrahydroisoquinoline-7-yl)methyl)-5H-pyrrolo[3,2-d]pyrimidine-4-amine], the minimal effective concentration in test [1] was in the range of 0.001 to 0.01 µM. In addition, in test [2], the EC50 was 0.1 to 1 µM. In the case of `COCCOc1nc(N)c2[nH]cc(Cc3ccc(Cl)cn3)c2n1` [Example 37, 7-((5-chloropyridine-2-yl)methyl)-2-(2-methoxylethoxyl)-5H-pyrrolo[3,2-d]pyrimidine-4-amine], the EC50 in test [2] is 1 to 50 µM. Same read-out and setting: the figure for `COCCOc1nc(N)c2[nH]cc(Cc3ccc(CN4CCCC4)nc3)c2n1` [Example 38, 2-(2-methoxylethoxyl-)-7-((6-(pyrrolidine-1-ylmethyl)pyridine-3-yl)methyl)-5H-pyrrolo[3,2-d]pyrimidine-4-amine] is 0.1 to 1 µM; for `COCCOc1nc(N)c2[nH]cc(Cc3ccc(N4CCN(C)CC4=O)cc3)c2n1` [Example 39, 1-(4-((4-amino-2-(2-methoxylethoxyl)-5H-pyrrolo[3,2-d]pyrimidine-7-yl)methyl)phenyl)-4-methylpiperazine-2-one] it is 0.1 to 1 µM. Still for that read-out and setting: the figure for `CCCCOc1nc(N)c2[nH]cc(Cc3ccc(CN4CCCC4)cn3)c2n1` [Example 40, 2-butoxy-7-((5-(pyrrolidine-1-ylmethyl)pyridine-2-yl)methyl)-5H-pyrrolo[3,2-d]pyrimidine-4-amine] is 0.1 to 1 µM. The same measure, in the same setting: the figure for `CCCCOc1nc(N)c2[nH]c(C#N)c(Cc3ccc(CN4CCCC4)nc3)c2n1` [Example 41, 4-amino-2-butoxy-7-((6-(pyrrolidine-1-ylmethyl)pyridine-3-yl)methyl)-5H-pyrrolo[3,2-d]pyrimidine-6-carbonitrile] is 0.001 to 0.1 µM. Consider `CCCCOc1nc(N)c2[nH]c(C#N)c(Cc3ccc(CN4CCOCC4)cc3)c2n1` [Example 43, 4-amino-2-butoxy-7-(4-(morpholinomethyl)benzyl)-5H-pyrrolo[3,2-d]pyrimidine-6-carbonitrile], for which the EC50 in test [2] lay within 0.001 to 0.1 µM. Same read-out and setting: the same measure for `CCCCOc1nc(N)c2[nH]c(C#N)c(Cc3ccc(CN4CCN(C)CC4)cc3)c2n1` [Example 44, 4-amino-2-butoxy-7-(4-((4-methylpiperazine-1-yl)methyl)benzyl)-5H-pyrrolo[3,2-d]pyrimidine-6-carbonitrile]: 0.001 to 0.1 µM; for `CCCCOc1nc(N)c2[nH]c(C(N)=O)c(Cc3ccc(CN4CCCC4)cc3)c2n1` [Example 45, 4-amino-2-butoxy-7-(4-(pyrrolidine-1-ylmethyl)benzyl)-5H-pyrrolo[3,2-d]pyrimidine-6-formamide]: 0.1 to 1 µM.
